Data as given in patent US11667649B2, “Heteroaromatic macrocyclic ether chemotherapeutic agents” (Nuvalent, Inc., priority 2020, dated 2023).
Where two headings read alike, the source gives them in different places.

Key:
[1] = cc_pd bond, 12-membered ring
[2] = test system: TPM3-NTRK1-wt IC50 / primary target (e.g. CD74-ROS1-wt) IC50, Ba/F3 cells; experiment: Cell assay TRKA selectivity (TRKA potency divided by primary target potency); type: cell-based
In short: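 IL-3-independent Ba/F3 lines stably expressing TPM3-TRKA or the primary fusion (e.g. CD74-ROS1 wt) were exposed to 3-fold compound dilutions for 72 h. Viability was read by CellTiter-Glo luminescence, with IC50 from four-parameter logistic fit. Selectivity is TPM3-NTRK1 IC50 divided by primary-target IC50, binned A (>30-fold) to D (<1).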

[3] = test system: ROS1-positive NSCLC; settings: treatment of ROS1-positive NSCLC; cited from earlier work
[4] = target: T1, ROS1-G2032R kinase domain (Homo sapiens, UniProt P08922, G2032R); experiment: Biochemical kinase assay, ROS1-G2032R; settings: 2 mM ATP substrate solution, read-out: Ki^app ROS1-G2032R
T1 construct: TRKA-wt (1 nM, BPS Bio, 40280) kinase domains in buffer; purchased SignalChem R14-12BG
In short: (§1)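 Apparent Ki values come from fitting initial reaction rates against inhibitor concentration to the Morrison equation. Rates were taken from the linear phase of fluorogenic substrate phosphorylation (AQT0101 for ALK and ROS1, AQT0104 for TRKA; 26 μM in substrate solution with 2 mM ATP), monitored at 485 nm over 120 min at 30° C.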

[5] = target: T2, TRKA-wt kinase domain (Homo sapiens, UniProt P04629); experiment: Biochemical kinase assay, TRKA-wt; settings: 2 mM ATP substrate solution, read-out: Ki^app TRKA-wt
T2 construct: TRKA-wt (1 nM, BPS Bio, 40280) kinase domains in buffer; purchased BPS Bio 40280
In short: as §1

[6] = target: T3, ALK-wt kinase domain (Homo sapiens, UniProt Q9UM73); experiment: Biochemical kinase assay, ALK-wt; settings: 2 mM ATP substrate solution, read-out: Ki^app ALK-wt
T3 construct: TRKA-wt (1 nM, BPS Bio, 40280) kinase domains in buffer; purchased Carna 08-518
In short: as §1

[7] = target: T4, ROS1-wt kinase domain (Homo sapiens, UniProt P08922); experiment: Biochemical kinase assay, ROS1-wt; settings: 2 mM ATP substrate solution, read-out: Ki^app ROS1-wt
T4 construct: TRKA-wt (1 nM, BPS Bio, 40280) kinase domains in buffer; purchased Carna 08-163
In short: as §1

[8] = target: T5, ALK L1196M/G1202R kinase domain (Homo sapiens, UniProt Q9UM73, G1202R/L1196M); experiment: Biochemical kinase assay, ALK L1196M/G1202R; settings: 2 mM ATP substrate solution, read-out: Ki^app ALK-L1196M-G1202R
T5 construct: TRKA-wt (1 nM, BPS Bio, 40280) kinase domains in buffer; purchased SignalChem A19-12NG
In short: as §1

Row | Compound | Ki [4] [nM] | Ki [5] [nM] | Ki [6] [nM] | Ki [7] [nM] | Ki [8] [nM] | other results
1 | CCn1ncc2c1-c1cnc(N)c(c1)OC(C)c1cc(F)ccc1-c1nccn1C2 (centres unmarked) |  |  |  |  |  | ring closure, yield after HPLC ([1]; from CCn1ncc(Cn2ccnc2-c2ccc(F)cc2C(C)Oc2cc(Br)cnc2N)c1Br, B2pin2/Pd(OAc)2/cataCXium A/NaOH, MeOH/H2O, 57.0 mM, 75.0 °C, 3.0 h): 10%
2 | CCc1nn(C)c2c1-c1cnc(N)c(c1)OCc1cc(F)ccc1-c1ncccc1C2 [Example 170, 3-ethyl-17-fluoro-5-methyl-21-oxa-4,5,12,24-tetraazapentacyclo[20.3.1.0^2,^6.0^8,^13.0^14,^19]hexacosa-1(25),2(6),3,8(13),9,11,14,16,18,22(26),23-undecaen-23-amine] |  |  |  |  |  | TPM3-NTRK1-wt/CD74-ROS1-G2032R ([2]; TRKA selectivity ratio: TPM3-NTRK1-wt IC50 / CD74-ROS1-G2032R IC50, Ba/F3 cells): A (bin A for very high selectivity, ratio>30-fold); TPM3-NTRK1-wt/CD74-ROS1-wt ([2]; TRKA selectivity ratio: TPM3-NTRK1-wt IC50 / CD74-ROS1-wt IC50, Ba/F3 cells): A (bin A for very high selectivity, ratio>30-fold); TPM3-NTRK1-wt/EML4-ALK-L1196M-G1202R ([2]; TRKA selectivity ratio: TPM3-NTRK1-wt IC50 / EML4-ALK-L1196M-G1202R IC50, Ba/F3 cells): B (bin B for high selectivity, ratio>10-fold); TPM3-NTRK1-wt/EML4-ALK-wt ([2]; TRKA selectivity ratio: TPM3-NTRK1-wt IC50 / EML4-ALK-wt IC50, Ba/F3 cells): A (bin A for very high selectivity, ratio>30-fold); ring closure, yield after HPLC ([1]; from CCc1nn(C)c(Cc2cccnc2-c2ccc(F)cc2COc2cc(Br)cnc2N)c1Br, B2pin2/Pd(OAc)2/cataCXium A/CsF, MeOH/H2O, 17.0 mM, 80.0 °C, 5.0 h): 3.3%
3 | CCn1ncc2c1-c1cnc(N)c(c1)O[C@H](C)c1cc(F)ccc1-c1nn(C)cc1C2 |  |  |  |  |  | ring closure, yield after HPLC ([1]; from CCn1ncc(Cc2cn(C)nc2-c2ccc(F)cc2[C@@H](C)Oc2cc(Br)cnc2N)c1Br, B2pin2/Pd(OAc)2/cataCXium A/NaOH, MeOH/H2O, 41.0 mM, 80.0 °C, 12.0 h): 10%
4 | C[C@@H](Oc1cc(-c2cnn(C3CCNCC3)c2)cnc1N)c1c(Cl)ccc(F)c1Cl [Crizotinib, crizotinib] |  |  |  |  |  | median progression-free survival [3]: 9-19 months; overall response rate [3]: 60-80%
5 | CCc1noc2c1-c1cnc(N)c(n1)O[C@H](C)c1cc(F)ccc1-c1nn(C)cc1C2 |  |  |  |  |  | ring closure, yield after HPLC ([1]; from CCc1cc(Cc2cn(C)nc2-c2ccc(F)cc2[C@@H](C)Oc2nc(Br)cnc2N)on1, Pd(OAc)2/cataCXium A/KOAc, 2-methyl-2-butanol, 20.0 mM, 120.0 °C, 6.0 h): 24%
6 | CCn1ncc2c1-c1cnc(N)c(c1)OCc1cc(F)ccc1-n1nc(Cl)cc1C2 [Compound 75] | < 50 | 50 to 500 | < 50 | < 50 | < 50 | 
7 | CCn1ncc2c1-c1cnc(N)c(c1)OCc1cc(F)ccc1-n1nc(C)cc1C2 [Compound 69] | < 50 | 50 to 500 | < 50 | < 50 | < 50 | 
8 | CCn1nc(OC)c2c1-c1cnc(N)c(c1)O[C@H](C)c1cc(F)ccc1-n1nc(C(F)F)cc1C2 [Compound 147] | < 50 | < 50 | < 50 | < 50 | < 50 | 
9 | C[C@H]1Oc2cc(cnc2N)-c2c(C#N)cnn2Cc2cn(C)nc2-c2ccc(F)cc21 [Compound 9] | < 50 | > 500 | < 50 | < 50 | < 50 | 
10 | CC1Oc2cc(cnc2N)-c2c(C#N)ncn2Cc2cnn(C)c2-c2ccc(F)cc21 (centres unmarked) [Compound 167] | 50 to 500 | > 500 | < 50 | < 50 | 50 to 500 | 
11 | Cc1cc2n(n1)-c1ccc(F)cc1[C@@H](C)Oc1cc(cnc1N)-c1c(C#N)ncn1C2 [Compound 61] | > 500 | > 500 | 50 to 500 | 50 to 500 | > 500 | 
12 | CC1Oc2cc(cnc2N)-c2c(nn(C)c2C#N)Cc2ccnn2-c2ccc(F)cc21 (centres unmarked) |  |  |  |  |  | ring closure, yield after HPLC ([1]; from CC(Oc1cc(Br)cnc1N)c1cc(F)ccc1-n1nccc1Cc1cc(C#N)n(C)n1, Pd(OAc)2/cataCXium A/KOAc, 2-methyl-2-butanol, 20.0 mM, 120.0 °C): 17%
13 | C[C@H]1Oc2cc(cnc2N)-c2c(C#N)cnn2Cc2cn(C)nc2-c2ccc(F)cc21 |  |  |  |  |  | ring closure, yield after HPLC ([1]; from C[C@@H](Oc1cc(Br)cnc1N)c1cc(F)ccc1-c1nn(C)cc1Cn1cc(C#N)cn1, Pd(OAc)2/cataCXium A/KOAc, 2-methyl-2-butanol, 32.0 mM, 120.0 °C): 15%
14 | CC(Oc1cc(Br)cnc1N)c1cc(F)ccc1-c1c(Cn2cnc(C#N)c2)cnn1C (centres unmarked) |  |  |  |  |  | ring closure, yield after HPLC ([1]; the molecule shown is the open-chain precursor, Pd(OAc)2/cataCXium A/KOAc, 2-methyl-2-butanol, 30.0 mM, 120.0 °C): 5.9%
15 | COc1cc2n(n1)-c1ccc(F)cc1[C@@H](C)Oc1cc(cnc1N)-c1c(nnn1CC1CC1)C2 [Compound 144] | < 50 | 50 to 500 | < 50 | < 50 | < 50 | 
16 | Cc1nc2c(s1)Cc1cnn(C(F)F)c1-c1cnc(N)c(c1)O[C@H](C)c1cc(F)ccc1-2 [Compound 72] | < 50 | 50 to 500 | < 50 | < 50 | < 50 | 
17 | C[C@H]1Oc2cc(cnc2N)-c2c(C#N)nnn2Cc2cn(C)nc2-c2ccc(F)cc21 [Compound 24] | 50 to 500 | > 500 | < 50 | < 50 | < 50 | 
18 | CCn1ncc2c1-c1cnc(N)c(c1)OCc1cc(F)ccc1-n1nccc1C2 [Compound 41] | < 50 | > 500 | < 50 | < 50 | < 50 | 
19 | CCc1nn(C)c2c1-c1cnc(N)c(c1)O[C@H](C)c1cc(F)ccc1-c1nn(C)cc1C2 [Compound 171] | < 50 | < 50 | < 50 | < 50 | < 50 | 
